Data set [1] deals with HIV-1 IIIB A17 variant (Y181C/K103N). The data set is described as follows: HIV inhibition assay in TZM-bl cells, A17 variant. The note with it: Human immunodeficiency virus 1, IIIB, TZM-bl. The data set is classed as cell-based. The protocol:
(§1) Cells and virus culture: TZM-bl cells (42), HIV-1 IIIB virus (43-45) and HIV-1 IIIB (A17 variant) virus (46) as well are the NNRTI resistant mutants (strain NL4-3) (47) were obtained from the NIH HIV Reagent Program. H9 [derivative of HuT 78]cells (ATCC® HTB176™) were obtained from the American Type Culture Collection (Manassas, Virginia, United States of America). These viruses were grown in H9 cells to high titer, which was tested using a HIV p24 (high sensitivity) The detection kit used was sold under the tradename ALPHALISA® Detection Kit (PerkinElmer, Waltham, Massachusetts, United States of America). The viruses were concentrated using Lenti-X Concentrator (Takara Bio USA, Inc., Mountain View, California, United States of America). Infections of TZM-bl cells with either virus was facilitated with 15 μg/mL DEAE-dextran.
(§2) Compounds were serially diluted starting with 10 mM stocks in DMSO. DMSO concentrations were kept the same for all dilutions used within an assay (either 0.005% or 0.05% depending on highest concentration used). Duplicate 96-well plates were set up with 25 μL compound dilution, 25 μL virus, and 50 μL TZM-bl cells (2×10^5/mL) with DEAE-dextran and incubated at 37° C. 5% CO2 for 48 hr. All compounds were tested in triplicate, with single wells of efavirenz dilutions on each plate. All plates had 3-5 control wells without compound, 1 control well with no cells, and 1 control well with a highly toxic level of DMSO (9%). Inhibition assays were set up in clear tissue-culture treated plates with lysates moved to black assay plates or were set up in black tissue culture-treated plates. Medium was removed and the cells were lysed with Glo Lysis Buffer (Promega, Madison, Wisconsin, United States of America). Luciferase Assay System reagent (Promega, Madison, Wisconsin, United States of America) was added to cells and relative light units (RLU) was measured using an EnSpire instrument (PerkinElmer, Waltham, Massachusetts, United States of America). Toxicity assays were set up in clear tissue culture-treated plates. CellTiter-Blue Cell Viability Assay reagent (Promega) was added to the wells after 46 hr incubation, followed by 2 hr incubation. Sodium lauryl sulfate was added to 1.5% to stop the reaction and the plates were measured for fluorescence (560 nmEx/590 nmEm) using an EnSpire instrument (PerkinElmer, Waltham, Massachusetts, United States of America).

Data set [2] concerns HIV-1 IIIB (wild-type). The data set is described as follows: HIV inhibition assay in TZM-bl cells, wild-type. The data set is classed as cell-based. The note with it: Human immunodeficiency virus 1, IIIB; for IC50: read-out: IC50 (TZM, WT). How it is done:
as §1, §2

The target in data set [3] is T1, HIV I reverse transcriptase (Human immunodeficiency virus type 1 group M subtype B, UniProt P03366).
T1 construct: purchased Roche
The data set is described as follows: Reverse transcriptase inhibition assay (Roche kit, ELISA). It is filed as biochemical. The protocol:
NNRTI assay methods: Inhibition of HIV I reverse transcriptase was assessed via a kit from Roche (Indianapolis-Marion County, Indiana, United States of America) using the manufacture's protocol (500 μM final reverse transcriptase reaction amount). […] DMSO concentrations were kept the same for all dilutions used within an assay (0.05%). Final compound concentrations ranged from 5000 nM-0.05 nM with 2-fold serial dilutions. 96-well plates were set up with 20 μL compound dilution, 20 μL reverse transcriptase, and 20 μL template/nucleotides and incubated at 37° C. 5% CO2 for 1 hr in a reaction plate. 50 μL of each reaction was then transferred to a streptavidin conjugated 96-well plate and an ELISA assay was run based on manufacture's protocol. All compounds were tested in sextuplicate, with single wells of efavirenz dilutions on each plate.
Background: An ELISA detects its analyte on a solid surface through an enzyme-linked reagent.

Data set [4] in a line: Toxicity assay in TZM-bl cells. It is filed as cell-based. The settings on record: human. The protocol:
as §2

For data set [5], the system named is TZM-bl cells. The data set is described as follows: Toxicity assay in TZM-bl cells. It is filed as cell-based. How it is done:
as §2

Data set [6] concerns primary mouse neuron cultures. Kind of data set: Calcium imaging in primary neurons. It is filed as cell-based. The settings on record: 1 μM. How it is done:
The direct effects of the antiretroviral compounds were tested on primary rat and mouse neurons cultured on coverslips. Neurons at 14-18 days in vitro were loaded with the calcium indicator, Fluo-4 AM (2 μM, Molecular Probes, Inc., Eugene, Oregon, United States of America) in aCSF (aCSF: NaCl […], KCl 5.0 mM, CaCl2 2.3 mM, MgCl2 1.3 mM, glucose 20 mM). After 30 minutes of dye loading, the coverslip was transferred to a specialized stage for imaging. Cells were maintained in aCSF and time-lapse digital images were automatically captured on an Olympus IX71 microscope using software sold under the tradename METAMORPH® (Molecular Devices, San Jose, California, United States of America). Images were captured with a 40 msec exposure every 6 seconds for 6 minutes to assess acute effects and every minute for 60 minutes to assess delayed effects. Three pre-stimulation measurements were taken to establish basal levels of fluorescence at the beginning of each experiment. After collection of the third image, neurons the antiretroviral compound or vehicle diluted from the stock vial into aCSF was added to the neurons at the indicated final concentration. Baseline fluorescence was subtracted to correct for cell-to-cell differences in dye loading and intrinsic fluorescence. Changes in fluorescence at each time point were averaged across all cells from at least triplicate runs to provide an indication of the “typical” response. In some cases, individual cell response patterns are shown where the average masked important cell-specific profiles. All compounds were tested at 1 μM.

[7] abbreviates: read-out: IC50 (TZM, A17), Table 3, TZM-bl, ± SEM, minimum 6 replicates.
Where [8] appears, read: read-out: IC50 (TZM, A17), Table 4, TZM-bl.
Setting [9] is: Table 3, TZM-bl, ± SEM, minimum 6 replicates.

Results on five compounds are retold here after US20250179033A1 (priority 2021, published 2025).

Read-outs that look alike come from different tables or passages of the source.

Consider `N#Cc1ccc2c(S(=O)(=O)n3nc(Nc4ccc(C#N)c(C#N)c4)nc3N)cccc2c1` [Compound 14, 4-[[5-amino-1-[(6-cyano-1-naphthyl)sulfonyl]-1,2,4-triazol-3-yl]amino]phthalonitrile], for which the IC50 in data set [1] (setting [7]) turned out to be 37.2 ± 15.4 nM; in data set [1] (setting [8]), 31.7 nM; in data set [2] (setting [9]) it was 0.684 ± 0.077 nM; in data set [2] (Table 4, TZM-bl), 0.318 nM. The EC50 in data set [3] turned out to be 1350 nM. For the same compound, half-maximal cytotoxicity in data set [4] (CC50 at 48 h) was put at 31.8 µM. Moreover, the “Qualitative Cell Toxicity within inhibition range” value in data set [5] is given as “None”. The “Quantitative Cell Toxicity” value in data set [5] (human, 48 h) was found to be 1350 nM.

As to `N#C/C=C/c1ccc2c(S(=O)(=O)n3nc(Nc4ccc(CC#N)cc4)nc3N)cccc2c1` [Compound 21, 3-[5-[[5-amino-3-[4-(cyanomethyl)anilino]-1,2,4-triazol-1-yl]sulfonyl]-2-naphthyl]prop-2-enenitrile], the IC50 in data set [1] (setting [7]) is 5.42 ± 1.39 nM; in data set [1] (setting [8]) it was 13.8 nM; in data set [2] (setting [9]), 0.255 ± 0.035 nM; in data set [2] (Table 4, TZM-bl), 0.228 nM. The compound further came in with an EC50 in data set [3] of 10900 nM. For the same compound, the midpoint of cytotoxicity in data set [4], the CC50 at 48 h, lay at 0.747 µM. Also, the “Qualitative Cell Toxicity within inhibition range” value in data set [5] is on record as “None”. For the same compound, in data set [5] (human, 48 h), the “Quantitative Cell Toxicity” value was 747 nM.

As for `O=C1Nc2ccc(Cl)cc2[C@@](C#CC2CC2)(C(F)(F)F)O1` [Efavirenz, efavirenz], the IC50 in data set [1] (setting [8]) was 17 nM. The IC50 in data set [2] (Table 4, TZM-bl) was 0.658 nM. In addition, in data set [6], the “acute spike frequency / acute signaling” value is given as “trend towards a reduced acute signaling”; the delayed spike frequency entry was “increase”; the total calcium accumulation entry is reported as “most dramatic increase”; the “toxic effects by calcium imaging, overall” value is “seemed to have some toxic effects”. For the same compound, the CC50 at 48 h in data set [4] (TZM-bl cells, Table 4, TZM-bl, read-out: CC50 (TZM)) was more than 100 µM.

Turning to `N#Cc1ccc2c(S(=O)(=O)n3nc(Nc4ccc(C#N)c(Cl)c4)nc3N)cccc2c1` [Compound 5, 5-[[5-amino-3-(3-chloro-4-cyano-anilino)-1,2,4-triazol-1-yl]sulfonyl]naphthalene-2-carbonitrile], the IC50 in data set [1] (setting [7]) turned out to be 39.6 ± 18.2 nM; in data set [1] (setting [8]), 15.7 nM; in data set [2] (setting [9]), 0.42 ± 0.0777 nM; in data set [2] (Table 4, TZM-bl), 0.428 nM. This compound registered an EC50 in data set [3] of 1710 nM. The CC50 at 48 h in data set [4] (Table 4, TZM-bl, read-out: CC50 (TZM)) turned out to be 6.01 µM. Moreover, the “Qualitative Cell Toxicity within inhibition range” value in data set [5] (Table 3, TZM-bl) is given as “None”. Also, the “Quantitative Cell Toxicity” value in data set [5] (Table 3, TZM-bl) is 1710 nM.

Consider `Cc1cc(/C=C/C#N)cc(C)c1Nc1ccnc(Nc2ccc(C#N)cc2)n1` [Rilpivirine, rilpivirine, reference compound], for which the IC50 was determined as 0.817 nM in data set [1] (setting [8]); 0.351 nM in data set [2] (Table 4, TZM-bl); 1180 nM in data set [3]. In addition, the EC50 in data set [1] (read-out: activity against the A17 double mutant (Y181C/K103N), EC50) was found to be 1.58 nM; in data set [2] (text b494, FIG. 2F, read-out: antiviral activity against wildtype, EC50) it was 0.35 nM; in data set [3], 376 nM. For the same compound, the “acute spike frequency / acute signaling” value in data set [6] is on record as “decrease”. In data set [4], the midpoint of cytotoxicity, the CC50 at 48 h, lay at 112 µM.

As usually defined, the IC50 is the concentration needed to halve the response being measured. As a reminder, the CC50 is the concentration that lowers cell viability or growth by half.
